Values after ≈ are worked out from the molar mass of the structure shown.
Experiments:
[1] = Partition in system 1-octanol/buffer pH 7.4, shake-flask method; format: physicochemical; conditions: for logP at 2 days / logD at 2 days: 1-octanol/buffer pH 7.4, pH 7.4, 1-octanol/buffer pH 7.4; for logP at 2 days: from concentrations in mole fraction; for logD at 2 days / logPo/b: from concentrations in mol∙L^−1; for sb × 10^5 (concentration in buffer) / so × 10^3 (concentration in 1-octanol) / xb × 10^7 (mole fraction in buffer) / xo × 10^4 (mole fraction in 1-octanol) / logPo/b: 1-octanol/buffer pH 7.4
Experimental: The partition coefficients of the new hybrid compounds in the model system 1-octanol/buffer pH 7.4 as a lipophilicity surrogate were determined experimentally. […] It is the lipophilic properties that allow the hybrids to move from the water phase to the less hydrophilic octanol phase, where the solute–solvent intermolecular interactions are more favourable. According to the results shown in Table 5, the order of changes in the partition coefficients logPo/b at T = 298.15 K, depending on the substituent nature, is expressed as the inequality: Cl- (1.65) < F- (2.40) < CH3- (2.50). Compounds I and II are the most lipophilic in the series of the studied substances, whereas the introduction of a chlorine atom considerably lowers the partition coefficient (~0.8 log units). This fact agrees with the common concept that lipophilic groups are usually hydrocarbon or fluorine-containing radicals. […] For drugs with such partition coefficients, there is a good balance between the solubility and permeability through passive diffusion and minimum metabolism due to the low binding capacity with enzymes.
The octanol/buffer pH 7.4 partition coefficient logPO/B is measured in a static mode using the shake-flask method. The procedure has been presented as standard in the Organization for Economic Cooperation and Development (OECD) guidelines for testing chemicals. The equipment described above was also used for the determination of the 1-octanol/water partition coefficients. […] The correctness of the obtained value of each compound was verified by checking the mass balance of the starting amount of the compound and the total amount of the compound partitioned between the two phases.
To aim evaluated transfer (partition) thermodynamic functions, the 1-octanol/buffer partition coefficients P^* o/b as the ratio of equilibrium concentrations in the organic (xo) and aqueous phases (xb) expressed in mole fractions were calculated: P* o/b = xo/xb(12)

[2] = Equilibrium (thermodynamic) solubility, shake-flask method; format: physicochemical; conditions: for Solubility S × 10^3 / Solubility x × 10^4 / Solubility x × 10^5 / Solubility S × 10^4 / Solubility x × 10^6: amorphous state; for Solubility S × 10^4 / Solubility x × 10^6: Buffer pH 7.4
Source text: The experimental solubility values of hybrids in the selected solvents within the temperature range of 293.15–313.15 K expressed in molarity are summarized in Table 2. The comparative analysis of the reference values of the solubility of compounds I–III at the standard temperature of 298.15 K is given as a histogram in Figure 3.
Shake-flask method as “gold standard” was used for determination thermodynamic solubility synthesized compounds in buffer solutions (pH 2.0 and 7.4) and 1-octanol in the temperature range of 293.15–313.15 K with a step of 5 degrees at atmospheric pressure. Excessive amounts of compound were added to glass vials c 12 mL of selected solvent. The heterogeneous system is closed with a lid and vigorously stirred at the selected temperature in an air thermostat with a stirring device until the solubility equilibrium has been reached. The time required for establishing a constant value of the solution concentration was determined from the solubility kinetic dependences and averaged 2 days. The equilibrated solutions were first survived to aim sedimentation of solid phase during 10 h, then centrifuged at 20,000 rpm for 30 min at specific temperatures, and then quickly filtered using a syringe equipped with a hydrophilic filter Millex-GV 0.22 µm (Ireland). Concentration of saturated solution was measured using spectrophotometer Cary-50 (Varian, USA) with an accuracy of 2–4%. The absorbances of compounds studied were measured at wavelengths 332 and 334 nm in buffer solutions and 1-octanol, respectively. If necessary, an aliquot was diluted with an appropriate solvent. The final pH of the saturated buffers was monitored. The solubility of compounds in each solvent was determined by repeating the procedure three times.
Mole fraction concentration was calculated from solubility value S expressed in mol∙L^−1 using Equation (10):(10) x=M2S/S(M2−M1)+1000ρ, where M1 and M2 are the molar masses of solute and solvent, respectively, and ρ (g∙cm^−3) is the density of the pure solvents. The mole fraction solubilities for buffer solutions were calculated taking into account the buffer compositions. The used values of densities are given in Table S6 in Supplementary Material.

With `O=c1c2sc(=S)n(-c3ccc(F)cc3)c2ncn1CCCN1CCN(CC(O)(Cn2cncn2)c2ccc(F)cc2F)CC1` (stereo not drawn) [II, 6-[3-[4-[2-(2,4-difluorophenyl)-2-hydroxy-3-(1H-1,2,4-triazol-1-yl)propyl]-1-piperazinyl]propyl]-2,3-dihydro-3-(4-fluorophenyl)-2-thioxo-thiazolo[4,5-d]pyrimidin-7(6H)-one] as the molecule, how does the logP at 2 days ([1]; 293.15 K) read?
Its logP at 2 days is 3.3.

And the logD at 2 days ([1]; 293.15 K)?
Its logD at 2 days is 2.36.

What about the logP at 2 days ([1]; 298.15 K) of the same molecule?
The logP at 2 days was 3.34.

What about the logP at 2 days ([1]; 303.15 K) of the same molecule?
The logP at 2 days was 3.37.

And the logD at 2 days ([1]; 303.15 K)?
Its logD at 2 days is 2.43.

And the logP at 2 days ([1]; 308.15 K)?
The logP at 2 days was 3.41.

What about the logP at 2 days ([1]; 313.15 K) of the same molecule?
The logP at 2 days was 3.45.

And the logD at 2 days ([1]; 313.15 K)?
Its logD at 2 days is 2.5.

And the “sb × 10^5 (concentration in buffer)” value ([1]; 293.15 K)?
The value was 1.47 mol∙L^−1 (printed as sb × 10^5.

And the “so × 10^3 (concentration in 1-octanol)” value ([1]; 293.15 K)?
Its value is 3.39 mol∙L^−1 (printed as so × 10^3.

What about the “xb × 10^7 (mole fraction in buffer)” value ([1]; 293.15 K) of the same molecule?
Its value is 2.67 mole fraction (printed as xb ×.

What about the “xo × 10^4 (mole fraction in 1-octanol)” value ([1]; 293.15 K) of the same molecule?
The value was 5.34 mole fraction (printed as xo ×.

And the “sb × 10^5 (concentration in buffer)” value ([1]; 298.15 K)?
Its value is 1.35 mol∙L^−1 (printed as sb × 10^5.

And the “so × 10^3 (concentration in 1-octanol)” value ([1]; 298.15 K)?
The value was 3.39 mol∙L^−1 (printed as so × 10^3.

What about the “xb × 10^7 (mole fraction in buffer)” value ([1]; 298.15 K) of the same molecule?
The value was 2.45 mole fraction (printed as xb ×.

And the “xo × 10^4 (mole fraction in 1-octanol)” value ([1]; 298.15 K)?
Its value is 5.37 mole fraction (printed as xo ×.

And the logPo/b ([1]; 298.15 K)?
The logPo/b was 2.40.

What about the “sb × 10^5 (concentration in buffer)” value ([1]; 303.15 K) of the same molecule?
Its value is 1.25 mol∙L^−1 (printed as sb × 10^5.

What about the “so × 10^3 (concentration in 1-octanol)” value ([1]; 303.15 K) of the same molecule?
Its value is 3.39 mol∙L^−1 (printed as so × 10^3.

What about the “xo × 10^4 (mole fraction in 1-octanol)” value ([1]; 303.15 K) of the same molecule?
The value was 5.39 mole fraction (printed as xo ×.

What about the “sb × 10^5 (concentration in buffer)” value ([1]; 308.15 K) of the same molecule?
Its value is 1.15 mol∙L^−1 (printed as sb × 10^5.

And the “so × 10^3 (concentration in 1-octanol)” value ([1]; 308.15 K)?
The value was 3.39 mol∙L^−1 (printed as so × 10^3.

What about the “xb × 10^7 (mole fraction in buffer)” value ([1]; 308.15 K) of the same molecule?
The value was 2.08 mole fraction (printed as xb ×.

What about the “xo × 10^4 (mole fraction in 1-octanol)” value ([1]; 308.15 K) of the same molecule?
Its value is 5.42 mole fraction (printed as xo ×.

What about the logPo/b ([1]; 308.15 K) of the same molecule?
The logPo/b was 2.47.

And the “sb × 10^5 (concentration in buffer)” value ([1]; 313.15 K)?
The value was 1.06 mol∙L^−1 (printed as sb × 10^5.

What about the “so × 10^3 (concentration in 1-octanol)” value ([1]; 313.15 K) of the same molecule?
Its value is 3.39 mol∙L^−1 (printed as so × 10^3.

And the “xb × 10^7 (mole fraction in buffer)” value ([1]; 313.15 K)?
The value was 1.94 mole fraction (printed as xb ×.

And the “xo × 10^4 (mole fraction in 1-octanol)” value ([1]; 313.15 K)?
Its value is 5.44 mole fraction (printed as xo ×.

What about the “Solubility S × 10^3” value ([2]; 1-Octanol, 293.15 K) of the same molecule?
Its value is 5.3994 mol∙L^−1 (printed as S × 10^3).

And the “Solubility x × 10^4” value ([2]; 1-Octanol, 293.15 K)?
Its value is 8.5358 mol. frac. (printed as x × 10^.

And the “Solubility S × 10^3” value ([2]; 1-Octanol, 298.15 K)?
The value was 5.6703 mol∙L^−1 (printed as S × 10^3).

And the “Solubility x × 10^4” value ([2]; 1-Octanol, 298.15 K)?
The value was 9.0027 mol. frac. (printed as x × 10^.

What about the “Solubility S × 10^3” value ([2]; 1-Octanol, 303.15 K) of the same molecule?
Its value is 5.8834 mol∙L^−1 (printed as S × 10^3).

And the “Solubility x × 10^4” value ([2]; 1-Octanol, 303.15 K)?
The value was 9.3813 mol. frac. (printed as x × 10^.

What about the “Solubility S × 10^3” value ([2]; 1-Octanol, 308.15 K) of the same molecule?
Its value is 6.1187 mol∙L^−1 (printed as S × 10^3).

What about the “Solubility x × 10^4” value ([2]; 1-Octanol, 308.15 K) of the same molecule?
The value was 9.8001 mol. frac. (printed as x × 10^.

And the “Solubility S × 10^3” value ([2]; 1-Octanol, 313.15 K)?
Its value is 6.3807 mol∙L^−1 (printed as S × 10^3).

And the “Solubility x × 10^4” value ([2]; 1-Octanol, 313.15 K)?
Its value is 10.2644 mol. frac. (printed as x × 10^.

What about the solubility at 2 days ([2]; 25 °C, organic solvent or mixture, thermodynamic from solid, 1-octanol, text values match 298.15 K, read-out: Solubility S in the alcohol (1-octanol)) of the same molecule?
The solubility at 2 days was 5.67 mM (≈ 3640 µg/mL).

What about the “Solubility S × 10^3” value ([2]; Buffer pH 2.0, 293.15 K) of the same molecule?
The value was 1.0755 mol∙L^−1 (printed as S × 10^3).

And the “Solubility x × 10^5” value ([2]; Buffer pH 2.0, 293.15 K)?
The value was 1.9402 mol. frac. (printed as x × 10^.

What about the “Solubility S × 10^3” value ([2]; Buffer pH 2.0, 298.15 K) of the same molecule?
The value was 1.2330 mol∙L^−1 (printed as S × 10^3).

What about the “Solubility x × 10^5” value ([2]; Buffer pH 2.0, 298.15 K) of the same molecule?
Its value is 2.2272 mol. frac. (printed as x × 10^.

And the “Solubility S × 10^3” value ([2]; Buffer pH 2.0, 303.15 K)?
Its value is 1.4273 mol∙L^−1 (printed as S × 10^3).

And the “Solubility x × 10^5” value ([2]; Buffer pH 2.0, 303.15 K)?
Its value is 2.5822 mol. frac. (printed as x × 10^.

What about the “Solubility S × 10^3” value ([2]; Buffer pH 2.0, 308.15 K) of the same molecule?
The value was 1.6250 mol∙L^−1 (printed as S × 10^3).

And the “Solubility x × 10^5” value ([2]; Buffer pH 2.0, 308.15 K)?
Its value is 2.9451 mol. frac. (printed as x × 10^.

What about the “Solubility S × 10^3” value ([2]; Buffer pH 2.0, 313.15 K) of the same molecule?
The value was 1.8394 mol∙L^−1 (printed as S × 10^3).

And the “Solubility x × 10^5” value ([2]; Buffer pH 2.0, 313.15 K)?
Its value is 3.3404 mol. frac. (printed as x × 10^.

And the “Solubility S × 10^4” value ([2]; 293.15 K)?
Its value is 3.0126 mol∙L^−1 (printed as S × 10^4).

And the “Solubility x × 10^6” value ([2]; 293.15 K)?
Its value is 5.4794 mol. frac. (printed as x × 10^.

And the “Solubility S × 10^4” value ([2]; 298.15 K)?
Its value is 3.1917 mol∙L^−1 (printed as S × 10^4).

What about the “Solubility x × 10^6” value ([2]; 298.15 K) of the same molecule?
The value was 5.8122 mol. frac. (printed as x × 10^.

What about the “Solubility S × 10^4” value ([2]; 303.15 K) of the same molecule?
Its value is 3.3788 mol∙L^−1 (printed as S × 10^4).

What about the “Solubility x × 10^6” value ([2]; 303.15 K) of the same molecule?
The value was 6.1623 mol. frac. (printed as x × 10^.

What about the “Solubility S × 10^4” value ([2]; 308.15 K) of the same molecule?
The value was 3.5539 mol∙L^−1 (printed as S × 10^4).

And the “Solubility x × 10^6” value ([2]; 308.15 K)?
Its value is 6.4929 mol. frac. (printed as x × 10^.

What about the “Solubility S × 10^4” value ([2]; 313.15 K) of the same molecule?
The value was 3.7469 mol∙L^−1 (printed as S × 10^4).

And the “Solubility x × 10^6” value ([2]; 313.15 K)?
The value was 6.8581 mol. frac. (printed as x × 10^.

— article PMC9573696, “Experimental Examination of Solubility and Lipophilicity as Pharmaceutically Relevant Points of Novel Bioactive Hybrid Compounds” (Molecules, 2022)
